From PubChem BioAssay (NCI)
Several values for one entry are separate records, joined by “and”; a condition that tells them apart may be missing. Equal entries are not always repeated.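 Dose response: 5 concentrations. Exposure: 48 h. Format: 96-well plates. Endpoint: linear interpolation; highest concentration if not reached. Here, GI50 denotes the concentration required for 50% inhibition of growth. TGI marks complete inhibition of growth.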

What was measured:
Assay in all cases: NCI tumour cell line growth inhibition, 48 h
SW-620 colon = system: SW-620 colon
HCT-116 colon = system: HCT-116 colon
RXF 393 renal = system: RXF 393 renal
HCC-2998 colon = system: HCC-2998 colon
TK-10 renal = system: TK-10 renal
HOP-62 NSCLC = system: HOP-62 NSCLC
OVCAR-4 ovarian = system: OVCAR-4 ovarian
HCT-15 colon = system: HCT-15 colon
OVCAR-5 ovarian = system: OVCAR-5 ovarian
MALME-3M melanoma = system: MALME-3M melanoma
NCI-H522 lung = system: NCI-H522 lung
IGROV1 ovarian = system: IGROV1 ovarian
NCI-H226 lung = system: NCI-H226 lung
OVCAR-8 ovarian = system: OVCAR-8 ovarian
HL-60(TB) leukemia = system: HL-60(TB) leukemia
MDA-MB-435 = system: MDA-MB-435
SN12C renal = system: SN12C renal
NCI/ADR-RES ovarian = system: NCI/ADR-RES ovarian
CAKI-1 renal = system: CAKI-1 renal
RPMI-8226 leukemia = system: RPMI-8226 leukemia
DLD-1 colon = system: DLD-1 colon
A549 NSCLC = system: A549 NSCLC
SK-MEL-28 melanoma = system: SK-MEL-28 melanoma
SK-MEL-5 melanoma = system: SK-MEL-5 melanoma
DMS 114 small cell lung = system: DMS 114 small cell lung
UACC-257 melanoma = system: UACC-257 melanoma
CCRF-CEM leukemia = system: CCRF-CEM leukemia
PC-3 prostate = system: PC-3 prostate
EKVX NSCLC = system: EKVX NSCLC
UO-31 renal = system: UO-31 renal
COLO 205 colon = system: COLO 205 colon
786-0 renal = system: 786-0 renal
BT-549 breast = system: BT-549 breast
HOP-92 NSCLC = system: HOP-92 NSCLC
SK-OV-3 ovarian = system: SK-OV-3 ovarian
LOX IMVI melanoma = system: LOX IMVI melanoma
K-562 leukemia = system: K-562 leukemia
P388/ADR leukemia = system: P388/ADR leukemia
HOP-18 NSCLC = system: HOP-18 NSCLC
OVCAR-3 ovarian = system: OVCAR-3 ovarian
P388 leukemia = system: P388 leukemia
MOLT-4 leukemia = system: MOLT-4 leukemia
ACHN renal = system: ACHN renal
LXFL 529 NSCLC = system: LXFL 529 NSCLC
T-47D breast = system: T-47D breast
NCI-H23 lung = system: NCI-H23 lung
MDA-MB-231 breast = system: MDA-MB-231 breast
KM12 colon = system: KM12 colon
HT29 colon = system: HT29 colon
HS 578T breast = system: HS 578T breast
SK-MEL-2 melanoma = system: SK-MEL-2 melanoma
A498 renal = system: A498 renal
SN12K1 renal = system: SN12K1 renal
UACC-62 melanoma = system: UACC-62 melanoma
MDA-N = system: MDA-N
KM20L2 colon = system: KM20L2 colon
SR leukemia = system: SR leukemia
MCF7 breast = system: MCF7 breast
M14 melanoma = system: M14 melanoma
DMS 273 small cell lung = system: DMS 273 small cell lung
NCI-H460 lung = system: NCI-H460 lung
XF 498 CNS = system: XF 498 CNS
SF-268 CNS = system: SF-268 CNS
M19-MEL melanoma = system: M19-MEL melanoma
SF-295 CNS = system: SF-295 CNS
U251 CNS = system: U251 CNS
SNB-19 CNS = system: SNB-19 CNS
SF-539 CNS = system: SF-539 CNS
SNB-75 CNS = system: SNB-75 CNS

## CO[C@@]12[C@H](COC(N)=O)C3=C(C(=O)C(C)=C(N)C3=O)N1C[C@@H]1N[C@@H]12
SW-620 colon
  GI50: 0.665 µM
  TGI: 13 µM and 9.44 µM and 24.2 µM
HCT-116 colon
  GI50: 1.26 µM and 1.15 µM
  TGI: 6.06 µM and 4.21 µM and 8.46 µM
RXF 393 renal
  GI50: 1.23 µM
  TGI: 6.36 µM and 6.07 µM and 3.77 µM
HCC-2998 colon
  GI50: 1.14 µM
  TGI: 2.88 µM and 2.98 µM and 3.91 µM
TK-10 renal
  GI50: 2.63 µM
HOP-62 NSCLC
  GI50: 0.643 µM
OVCAR-4 ovarian
  GI50: 4.65 µM
  TGI: 10.5 µM and 10.1 µM and 42.8 µM
HCT-15 colon
  GI50: 1.92 µM and 1.67 µM
  TGI: 10.4 µM and 16.4 µM and 43.4 µM
OVCAR-5 ovarian
  GI50: 2.69 µM and 1.65 µM
  TGI: 9.29 µM and 10.5 µM and 14 µM
MALME-3M melanoma
  GI50: 2.26 µM and 1.38 µM
  TGI: 4.06 µM and 6.53 µM and 4.03 µM
NCI-H522 lung
  GI50: 1.1 µM and 1.18 µM
  TGI: 3.85 µM and 4.17 µM and 8.07 µM
IGROV1 ovarian
  GI50: 3.24 µM and 1.5 µM
  TGI: 8.88 µM and 8.21 µM and 5.97 µM
NCI-H226 lung
  GI50: 1.35 µM and 1.45 µM
  TGI: 3.95 µM and 7.99 µM and 8.8 µM
OVCAR-8 ovarian
  GI50: 1.52 µM and 0.925 µM
HL-60(TB) leukemia
  GI50: 0.126 µM
MDA-MB-435
  GI50: 2.14 µM and 2.91 µM and 1.53 µM
  TGI: 6.92 µM and 12.7 µM and 15.3 µM
SN12C renal
  GI50: 0.995 µM
  TGI: 9.59 µM and 25 µM and 30.8 µM
NCI/ADR-RES ovarian
  GI50: 3.83 µM
  TGI: 20 µM and 21.4 µM and > 100 µM
CAKI-1 renal
  TGI: 6.18 µM and 25 µM and 3.07 µM
RPMI-8226 leukemia
  GI50: 2.03 µM and 1.88 µM
  TGI: 19.2 µM and 14.2 µM and 15.5 µM
DLD-1 colon
  TGI: 17.2 µM
A549 NSCLC
  TGI: 8.52 µM and 25 µM and 2.78 µM
SK-MEL-28 melanoma
  GI50: 2.18 µM
  TGI: 7.12 µM and 14.9 µM
SK-MEL-5 melanoma
  GI50: 1.6 µM
  TGI: 1.22 µM and 3.25 µM and 1.69 µM
DMS 114 small cell lung
  TGI: 5.08 µM
UACC-257 melanoma
  GI50: 2.16 µM
  TGI: 5.17 µM and 7.79 µM and 11.2 µM
CCRF-CEM leukemia
  GI50: 0.126 µM and 0.0625 µM
  TGI: 13.2 µM and 1.96 µM and 18.6 µM
PC-3 prostate
  GI50: 2.65 µM and 4.99 µM
  TGI: 17.4 µM and 20 µM and 25.7 µM
EKVX NSCLC
  GI50: 7.98 µM
  TGI: 17.1 µM and 20.8 µM and 31.7 µM
UO-31 renal
  TGI: 6.88 µM and 0.959 µM
COLO 205 colon
  GI50: 1.7 µM
  TGI: 5.21 µM and 8.43 µM and 7.05 µM
786-0 renal
  GI50: 0.717 µM
  TGI: 4.99 µM and 10.2 µM and 4.74 µM
BT-549 breast
  GI50: 0.799 µM
  TGI: 9.38 µM and 6.85 µM and 6.4 µM
HOP-92 NSCLC
  GI50: 1.81 µM and 1.75 µM
  TGI: 12.4 µM and 5.53 µM and 7.2 µM
SK-OV-3 ovarian
  GI50: 2.41 µM
  TGI: 9.83 µM and 18 µM and 7.06 µM
LOX IMVI melanoma
  GI50: 0.615 µM
  TGI: 4.26 µM and 3.47 µM
K-562 leukemia
  GI50: 1.52 µM
  TGI: 19.6 µM and 15.6 µM and > 100 µM
P388/ADR leukemia
  TGI: 16 µM
HOP-18 NSCLC
  TGI: 7.59 µM
OVCAR-3 ovarian
  GI50: 5.79 µM and 3.66 µM
  TGI: 8.8 µM and 14.4 µM and 34.4 µM
P388 leukemia
  TGI: 9.62 µM
MOLT-4 leukemia
  GI50: 0.271 µM
ACHN renal
  TGI: 4.88 µM and 1.76 µM
LXFL 529 NSCLC
  TGI: 7.53 µM
T-47D breast
  GI50: 2.25 µM and 1.41 µM
NCI-H23 lung
  GI50: 0.77 µM
  TGI: 1.43 µM and 3.86 µM and 4.56 µM
MDA-MB-231 breast
  GI50: 17.5 µM and 9.42 µM
  TGI: 16.8 µM and 25 µM and 56.3 µM
KM12 colon
  GI50: 1.57 µM and 3.5 µM
HT29 colon
  GI50: 1.45 µM and 0.542 µM
  TGI: 12.3 µM and 13 µM and 23.7 µM
HS 578T breast
  GI50: 4.21 µM and 5.26 µM
  TGI: 15.3 µM and 14 µM and 52.1 µM
SK-MEL-2 melanoma
  GI50: 4.21 µM and 2.54 µM
  TGI: 4.96 µM and 7.5 µM and 6.61 µM
A498 renal
  GI50: 1.05 µM
  TGI: 2.68 µM and 2.64 µM
SN12K1 renal
  TGI: 7.65 µM
UACC-62 melanoma
  GI50: 0.952 µM
  TGI: 2.64 µM and 7.74 µM and 2.19 µM
MDA-N
  GI50: 2.11 µM and 2.67 µM
  TGI: 7.44 µM and 19.1 µM
KM20L2 colon
  TGI: 10.2 µM
SR leukemia
  GI50: 0.0345 µM
MCF7 breast
  GI50: 0.215 µM and 0.0824 µM
  TGI: 8.6 µM and 15.1 µM and 47 µM
M14 melanoma
  GI50: 1.09 µM
  TGI: 4.08 µM and 12.2 µM and 2.06 µM
DMS 273 small cell lung
  TGI: 3.6 µM
NCI-H460 lung
  TGI: 1.03 µM and 1.48 µM

## COc1cc(C2c3cc4c(cc3[C@@H](Nc3ccc(N5CCOCC5)cc3)C3COC(=O)[C@H]23)OCO4)cc(OC)c1O (some centres not stated)
SW-620 colon
  TGI: 10.1 µM
HCT-116 colon
  TGI: 13.7 µM
RXF 393 renal
  TGI: 5.86 µM
HCC-2998 colon
  TGI: 4.1 µM
HOP-62 NSCLC
  TGI: 0.829 µM
XF 498 CNS
  TGI: 4.23 µM
OVCAR-4 ovarian
  TGI: 25.9 µM
HCT-15 colon
  TGI: 2.59 µM
SF-268 CNS
  TGI: 14.2 µM
OVCAR-5 ovarian
  TGI: 22.1 µM
MALME-3M melanoma
  TGI: 15 µM
M19-MEL melanoma
  TGI: 22.8 µM
NCI-H522 lung
  TGI: 3.4 µM
IGROV1 ovarian
  TGI: 26 µM
NCI-H226 lung
  TGI: 2.9 µM
OVCAR-8 ovarian
  TGI: 3.95 µM
HL-60(TB) leukemia
  TGI: 0.376 µM
SN12C renal
  TGI: 2.12 µM
NCI/ADR-RES ovarian
  TGI: 26.2 µM
CAKI-1 renal
  TGI: 2.63 µM
RPMI-8226 leukemia
  TGI: 12.6 µM
DLD-1 colon
  TGI: 4.12 µM
A549 NSCLC
  TGI: 1.62 µM
SK-MEL-28 melanoma
  TGI: 26.8 µM
SK-MEL-5 melanoma
  TGI: 2.45 µM
CCRF-CEM leukemia
  TGI: 0.773 µM
EKVX NSCLC
  TGI: 5.06 µM
SF-295 CNS
  TGI: 2.42 µM
UO-31 renal
  TGI: 5.16 µM
COLO 205 colon
  TGI: 4.94 µM
U251 CNS
  TGI: 1.89 µM
HOP-92 NSCLC
  TGI: 8.74 µM
SK-OV-3 ovarian
  TGI: 5.38 µM
LOX IMVI melanoma
  TGI: 4.27 µM
K-562 leukemia
  TGI: 5.01 µM
P388/ADR leukemia
  TGI: 1.07 µM
HOP-18 NSCLC
  TGI: 6.67 µM
OVCAR-3 ovarian
  TGI: 13.2 µM
SNB-19 CNS
  TGI: 2.72 µM
P388 leukemia
  TGI: 1.01 µM
MOLT-4 leukemia
  TGI: 0.19 µM
SF-539 CNS
  TGI: 2.32 µM
HT29 colon
  TGI: 4.58 µM
SK-MEL-2 melanoma
  TGI: 5.4 µM
A498 renal
  TGI: 3.2 µM
SN12K1 renal
  TGI: 3.6 µM
UACC-62 melanoma
  TGI: 3.91 µM
KM20L2 colon
  TGI: 3.91 µM
SNB-75 CNS
  TGI: 78.2 µM
MCF7 breast
  TGI: 14.7 µM
DMS 273 small cell lung
  TGI: 1.85 µM
NCI-H460 lung
  TGI: 1.14 µM
